Assay results reported in patent US12642794B2, “Dose regimens for use of LY3154207 in the treatment of dopaminergic CNS disorders” (Eli Lilly and Company, priority 2018, dated 2026).

What was measured:
adult rhesus monkey [1] = test: Spatial Delayed Response Task, spatial working memory; format: in vivo, rhesus macaque; conditions: for spatial working memory performance after repeat of the dose: 2.5 mg/kg on Day 1 and repeated on Day 5
Procedure: Experimental Overview: A group of both aged and non-aged animals was tested at a single dose of 2.5 mg/kg and their performance was followed daily for the first six days and on alternate days thereafter. This was to ascertain that we could repeat the effects we observed previously at the lowest possible dose. The effects of repeating this dose on Day 5, at the […] mark, were examined in order to determine whether (i) an immediate diminution in performance could still be seen the next day and (ii) whether the treatment could achieve a relatively consistent and enduring enhancement of performance in the following days. Since this dose was also capable of inducing a short term deficit in performance, the effects of single administrations at lower doses of 0.1 and 1.0 mg/kg were examined.
All animals were rhesus macaques except one stumptail (Macaca arctoides). Details of the animal demographics are given with each set of results. It was desired to have younger animals in each study, however a preponderance of aged animals were studied, and females outnumbered males by 2 or 3 to one. The Spatial Delayed Response Task is established as one of the most reliable, sensitive, and valuable models in which to test spatial working memory in primates. The Spatial Delayed Response Task is implemented rigidly in a completely systematic format that is uniform within and between animals and between studies. The Spatial Delayed Response Task is designed to normalize performance across animals such they all normally perform at ˜70% correct. The Spatial Delayed Response Task directly challenges the same spatial working memory circuitry in human and nonhuman primates, including dorsolateral prefrontal cortex, posterior parietal cortex and MD thalamus. The Spatial Delayed Response Task is sensitive to multiple neuropharmacological manipulations, whether administered locally or systemically, including dopaminergic, nicotinic, glutamatergic, and GABAergic agents. In this task one of several well locations are baited with food in view of the animal and then covered with identical plaques. An opaque shutter is then lowered for one of 5 variable delays, and then raised to allow the animal to make a response to one of the well locations to retrieve the food treat. Each animal is stabilized (65-75% correct ±≤2.5%) prior to commencing any administration by varying the number of wells and the lengths of the delay. Each testing session consists of 20 trials, 4 trials at each of 5 delays (distributed semi-randomly) ranging from 0, 1, 2, 3, and 4 N seconds, where N is incremented from 1 to 10 according to ability. The number of wells ranges for 2 to 7 and thus stability is achieved by gradually varying the number of wells and the N factor. Original baseline is achieved on initial training and is standardized over twenty sessions, thereafter an animal typically undergoes regular testing to ensure a reasonably stable baseline. An absolute minimum of three baseline sessions are required prior to any experimental condition. Animals are not food deprived but instead reward for correct responses with their most preferred treats (such as yoghurt raisins, gummy bears, and almonds) and then fed their normal ration of nutritional biscuits shortly after cognitive testing.
DPTQ was formulated as a suspension in 20% Captisol/PBS at pH8. Great care was taken to protect the compound in sonication and it was injected (at a volume of 0.2 ml/kg) via a 21G hypodermic needle (to avoid blockage) into the gluteus maximus within 2 hours of formulation (kept on ice). Vehicle was refrigerated in sterile injectable vials for up to one month. Animals were fully acclimated to all procedures prior to enrollment into any study. They were assigned on a readiness for study basis and where relevant, assignment was semirandom between vehicle and treatment arms. IM injections were performed in the animals' home cage 1 hour prior to cognitive testing. […]

adult rhesus monkey [2] = test: as above; format: in vivo, rhesus macaque

C[C@H]1c2cccc(CC(C)(C)O)c2C[C@H](CO)N1C(=O)Cc1c(Cl)cccc1Cl [DPTQ, 2-(2,6-dichlorophenyl)-1-((1S,3R)-5-(2-hydroxy-2-methylpropyl)-3-(hydroxymethyl)-1-methyl-3,4-dihydroisoquinolin-2 (1H)-yl) ethan-1-one]
diminution in spatial working memory performance (adult rhesus monkey [1]; 0.1 mg/kg): No sign of any diminution in performance
enhancement of spatial working memory performance (adult rhesus monkey [1]; 0.1 mg/kg, 2-week period): modest
spatial working memory performance versus baseline (adult rhesus monkey [1]; 0.1 mg/kg, Day 4): significant improvement over baseline
early deficit in spatial working memory (adult rhesus monkey [1]; 1.0 mg/kg): not evident
enhancement of spatial working memory performance (adult rhesus monkey [1]; 1.0 mg/kg, significance on Day 5): stronger than for the 0.1 mg/kg dose
effect on spatial working memory performance (adult rhesus monkey [1]; 2.5 mg/kg IM, Day 1): No immediate effect
impairment of spatial working memory performance (adult rhesus monkey [1]; 2.5 mg/kg IM, Day 3): ~10%
enhancement of spatial working memory performance (adult rhesus monkey [1]; 2.5 mg/kg IM, starting from Day 4, prolonged): ~10%
duration of sustained positive effect (adult rhesus monkey [1]; 2.5 mg/kg and above): ≥ 14 days
spatial working memory performance after repeat of the dose (adult rhesus monkey [1]; Day 6): distinctive drop in performance
spatial working memory performance after repeat of the dose (adult rhesus monkey [1]; after Day 6): enhancement for the subsequent week
difference between aged and non-aged animals (adult rhesus monkey [1]; 2.5 mg/kg, combined scores for Days 4, 5, and 6): No significant difference
spatial working memory performance (adult rhesus monkey [1]; 24 to 48 hours post injection): substantially impaired
spatial working memory performance (adult rhesus monkey [1]; 96 to 120 hours post injection): considerably enhanced
acute effect on spatial working memory performance (adult rhesus monkey [2]; acute doses of 2.5 to 10 mg/kg IM): trend in reducing spatial working memory performance
protection against ketamine induced cognitive deficits (adult rhesus monkey [2]; rhesus monkey, in vivo): little effect
